Reference: ChEMBL document CHEMBL1201862, “PubChem BioAssay data set” (2004)
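Values below derive from 48-hour exposures of cells grown in 96-well plates, with endpoints linearly interpolated between the two concentrations bracketing the appropriate inhibition level. The concentration for 50% growth inhibition is given as GI50.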 The source made the active and inactive calls. Cut-off read from the data, not from the text of the source: active = GI50 up to about 1.1 µM and inactive = higher.

What was measured:
Assay in all cases: NCI tumour cell line growth inhibition, 48 h
CAKI-1 = system: CAKI-1
MDA-N = system: MDA-N
NCI-H23 = system: NCI-H23
MDA-MB-231 = system: MDA-MB-231
OVCAR-3 = system: OVCAR-3
KM12 = system: KM12
U-251 = system: U-251
UACC-257 = system: UACC-257
LOX IMVI = system: LOX IMVI
NCI-H460 = system: NCI-H460
PC-3 = system: PC-3
UO-31 = system: UO-31
HL-60 = system: HL-60
DMS-273 = system: DMS-273
IGROV-1 = system: IGROV-1
NCI-H522 = system: NCI-H522
SK-MEL-2 = system: SK-MEL-2
SW-620 = system: SW-620
RPMI-8226 = system: RPMI-8226
T47D = system: T47D

Cc1c(CNc2ccc(Cl)c(C(=O)NC(CC(=O)O)C(=O)O)c2)ccc2nc(N)nc(N)c12 (stereo not given)
GI50 (CAKI-1): < 0.0311 µM (active) | GI50 (MDA-N): < 0.01 µM (active) | GI50 (NCI-H23): 0.142 µM (active) | GI50 (MDA-MB-231): > 100 µM (inactive) | GI50 (OVCAR-3): 6.46 µM (inactive) | GI50 (KM12): 0.106 µM (active) | GI50 (U-251): 0.134 µM (active) | GI50 (UACC-257): 5.55 µM (inactive) | GI50 (LOX IMVI): < 0.0118 µM (active) | GI50 (NCI-H460): 0.0352 µM (active) | GI50 (PC-3): 178 µM (inactive) | GI50 (UO-31): 0.665 µM (active) | GI50 (HL-60): 2.42 µM (inactive) | GI50 (DMS-273): 0.0617 µM (active) | GI50 (IGROV-1): 0.0715 µM (active) | GI50 (NCI-H522): 3.83 µM (inactive) | GI50 (SK-MEL-2): > 100 µM (inactive) | GI50 (SW-620): < 0.0175 µM (active) | GI50 (RPMI-8226): > 100 µM (inactive) | GI50 (T47D): > 100 µM (inactive)

CC(C)S(=O)(=O)ON1C(=O)c2ccc(N(C)C)cc2C1=O
GI50 (CAKI-1): 5.35 µM (inactive) | GI50 (MDA-N): 4.01 µM (inactive) | GI50 (NCI-H23): 27.7 µM (inactive) | GI50 (MDA-MB-231): 6.17 µM (inactive) | GI50 (OVCAR-3): 8.91 µM (inactive) | GI50 (KM12): 21.4 µM (inactive) | GI50 (U-251): 15.8 µM (inactive) | GI50 (UACC-257): 20.1 µM (inactive) | GI50 (LOX IMVI): 13.2 µM (inactive) | GI50 (NCI-H460): 19.9 µM (inactive) | GI50 (PC-3): > 10 µM (inactive) | GI50 (UO-31): 18.2 µM (inactive) | GI50 (HL-60): 3.41 µM (inactive) | GI50 (DMS-273): 19.8 µM (inactive) | GI50 (IGROV-1): 20.8 µM (inactive) | GI50 (NCI-H522): 1.52 µM (inactive) | GI50 (SK-MEL-2): 4.01 µM (inactive) | GI50 (SW-620): 11.4 µM (inactive) | GI50 (RPMI-8226): 2.58 µM (inactive) | GI50 (T47D): 9.4 µM (inactive)

CCCCCC(=O)OC[n+]1ccc2c(C)c3[nH]c4ccc(OC)cc4c3c(C)c2c1
GI50 (CAKI-1): 1.06 µM (active) | GI50 (MDA-N): 0.332 µM (active) | GI50 (NCI-H23): 0.361 µM (active) | GI50 (MDA-MB-231): 0.244 µM (active) | GI50 (OVCAR-3): > 100 µM (inactive) | GI50 (KM12): 0.225 µM (active) | GI50 (U-251): 0.321 µM (active) | GI50 (UACC-257): 1.28 µM (inactive) | GI50 (LOX IMVI): 0.224 µM (active) | GI50 (NCI-H460): 0.0325 µM (active) | GI50 (PC-3): 0.193 µM (active) | GI50 (UO-31): 0.625 µM (active) | GI50 (HL-60): 0.241 µM (active) | GI50 (DMS-273): 0.0341 µM (active) | GI50 (IGROV-1): 0.234 µM (active) | GI50 (NCI-H522): 0.566 µM (active) | GI50 (SK-MEL-2): 1.61 µM (inactive) | GI50 (SW-620): 0.0735 µM (active) | GI50 (RPMI-8226): 0.0619 µM (active) | GI50 (T47D): 1.02 µM (active)

CC(=O)NC(CCCCN(Cc1ccccc1)C(=O)N(CCCl)N=O)C(=O)NCc1ccccc1 (stereo not given)
GI50 (CAKI-1): > 26.8 µM (inactive) | GI50 (MDA-N): 14.9 µM (inactive) | GI50 (NCI-H23): 27.7 µM (inactive) | GI50 (MDA-MB-231): 21.9 µM (inactive) | GI50 (OVCAR-3): 60.8 µM (inactive) | GI50 (KM12): 38.5 µM (inactive) | GI50 (U-251): 11.6 µM (inactive) | GI50 (UACC-257): 24.3 µM (inactive) | GI50 (LOX IMVI): 22.2 µM (inactive) | GI50 (NCI-H460): 2.22 µM (inactive) | GI50 (PC-3): > 35.5 µM (inactive) | GI50 (UO-31): 34.4 µM (inactive) | GI50 (HL-60): 12.4 µM (inactive) | GI50 (DMS-273): > 35.8 µM (inactive) | GI50 (IGROV-1): 39.7 µM (inactive) | GI50 (NCI-H522): 39 µM (inactive) | GI50 (SK-MEL-2): 44.8 µM (inactive) | GI50 (SW-620): 18.5 µM (inactive) | GI50 (RPMI-8226): 41.7 µM (inactive) | GI50 (T47D): 14.5 µM (inactive)
